Measurements from paper PMC7316994, “In Vitro Pharmacological Profile of a New Small Molecule Bradykinin B2 Receptor Antagonist” (Frontiers in Pharmacology, 2020).
Where two headings read alike, the source gives them in different places.

Columns and labels:
Vasopressin V1B = biological target: T1, Vasopressin V1B (Homo sapiens, UniProt P47901); test: functional assay, intracellular [Ca2+], RBL cells (Table S2); format: cell-based; conditions: read-out: % inhibition of reference agonist response @ 10 µM (antagonist effect), Vasopressin (5 nM)
T1 construct: expressed in transfected cells; host or cells: RBL cells
T1 sequence (P47901 whole entry): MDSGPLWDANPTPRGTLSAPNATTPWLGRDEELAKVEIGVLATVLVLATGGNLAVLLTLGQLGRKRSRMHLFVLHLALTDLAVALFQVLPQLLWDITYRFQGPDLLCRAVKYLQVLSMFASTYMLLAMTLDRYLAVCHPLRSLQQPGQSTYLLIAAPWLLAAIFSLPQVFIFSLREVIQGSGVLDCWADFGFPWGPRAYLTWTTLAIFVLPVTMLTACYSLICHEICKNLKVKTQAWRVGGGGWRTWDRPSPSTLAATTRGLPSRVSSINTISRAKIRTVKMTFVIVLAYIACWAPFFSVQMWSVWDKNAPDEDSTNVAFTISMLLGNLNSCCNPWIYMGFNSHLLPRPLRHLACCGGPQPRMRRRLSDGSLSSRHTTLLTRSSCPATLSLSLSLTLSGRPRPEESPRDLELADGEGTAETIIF

[1] = biological target: T2, Cysteinyl leukotriene receptor CysLT1 (Homo sapiens, UniProt Q9Y271); test: radioligand binding (Table S2); conditions: [3H] LTD4, Human recombinant CHO cells
T2 construct: host or cells: CHO cells
T2 sequence (Q9Y271 whole entry): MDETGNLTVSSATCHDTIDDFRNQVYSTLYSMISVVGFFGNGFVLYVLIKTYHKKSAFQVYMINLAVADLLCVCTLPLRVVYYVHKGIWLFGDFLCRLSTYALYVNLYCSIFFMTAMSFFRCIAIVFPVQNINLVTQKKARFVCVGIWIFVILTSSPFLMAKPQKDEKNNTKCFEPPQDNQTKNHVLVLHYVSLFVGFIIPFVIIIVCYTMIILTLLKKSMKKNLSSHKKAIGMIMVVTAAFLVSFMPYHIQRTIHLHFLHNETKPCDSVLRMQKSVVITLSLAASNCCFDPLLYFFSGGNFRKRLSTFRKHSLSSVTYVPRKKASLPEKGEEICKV

[2] = biological target: T3, Growth hormone secretagogue (GHS, ghrelin) (Homo sapiens, UniProt Q92847); test: radioligand binding (Table S2); conditions: [125I] Ghrelin (human), Human recombinant CHO-K1 cells
T3 construct: host or cells: CHO-K1 cells

COX1 = biological target: T4, COX1 (Homo sapiens, UniProt P23219); test: enzyme assay (Table S2); format: biochemical; conditions: Arachidonic acid (3 µM) + ADHP, Fluorimetry
T4 construct: Eurofins (assay provider)

Cannabinoid CB1 = Cannabinoid CB1 (Homo sapiens, UniProt P21554); test: radioligand binding (Table S2); conditions: read-out: % Inhibition @ 10 µM
Sequence of Cannabinoid CB1 (P21554 whole entry): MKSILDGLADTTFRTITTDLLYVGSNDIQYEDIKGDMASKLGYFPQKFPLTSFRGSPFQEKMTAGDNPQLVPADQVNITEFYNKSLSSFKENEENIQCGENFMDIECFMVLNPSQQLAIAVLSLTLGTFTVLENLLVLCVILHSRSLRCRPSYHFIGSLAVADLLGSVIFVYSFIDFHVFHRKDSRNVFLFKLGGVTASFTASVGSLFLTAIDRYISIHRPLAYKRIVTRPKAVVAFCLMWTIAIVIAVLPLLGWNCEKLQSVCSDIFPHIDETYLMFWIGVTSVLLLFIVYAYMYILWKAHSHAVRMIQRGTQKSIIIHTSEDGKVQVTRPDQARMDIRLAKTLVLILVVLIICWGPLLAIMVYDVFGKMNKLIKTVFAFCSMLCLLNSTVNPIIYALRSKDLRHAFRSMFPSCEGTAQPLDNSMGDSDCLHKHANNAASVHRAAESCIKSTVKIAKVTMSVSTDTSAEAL

[3] = biological target: T5, Cysteinyl leukotriene receptor CysLT2 (Homo sapiens, UniProt Q9NS75); test: radioligand binding (Table S2); conditions: [3H] LTD4, Human recombinant HEK-293 cells
T5 construct: host or cells: HEK-293 cells
T5 sequence (Q9NS75 whole entry): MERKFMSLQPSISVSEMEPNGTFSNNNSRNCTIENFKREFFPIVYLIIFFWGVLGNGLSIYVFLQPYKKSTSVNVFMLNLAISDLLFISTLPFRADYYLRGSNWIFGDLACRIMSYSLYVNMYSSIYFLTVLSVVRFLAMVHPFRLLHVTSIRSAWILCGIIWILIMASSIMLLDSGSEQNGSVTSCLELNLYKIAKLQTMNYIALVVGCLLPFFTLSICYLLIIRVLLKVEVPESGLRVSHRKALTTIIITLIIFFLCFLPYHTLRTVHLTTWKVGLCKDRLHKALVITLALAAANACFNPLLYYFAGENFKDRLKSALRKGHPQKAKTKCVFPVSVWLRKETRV

Serotonin 5-HT4 e = biological target: T6, Serotonin 5-HT4 e (Homo sapiens, UniProt Q13639); test: radioligand binding (Table S2); conditions: [3H] GR 113808, Human recombinant CHO cells
T6 construct: host or cells: CHO cells
T6 sequence (Q13639 1-378 isoform Q13639-5): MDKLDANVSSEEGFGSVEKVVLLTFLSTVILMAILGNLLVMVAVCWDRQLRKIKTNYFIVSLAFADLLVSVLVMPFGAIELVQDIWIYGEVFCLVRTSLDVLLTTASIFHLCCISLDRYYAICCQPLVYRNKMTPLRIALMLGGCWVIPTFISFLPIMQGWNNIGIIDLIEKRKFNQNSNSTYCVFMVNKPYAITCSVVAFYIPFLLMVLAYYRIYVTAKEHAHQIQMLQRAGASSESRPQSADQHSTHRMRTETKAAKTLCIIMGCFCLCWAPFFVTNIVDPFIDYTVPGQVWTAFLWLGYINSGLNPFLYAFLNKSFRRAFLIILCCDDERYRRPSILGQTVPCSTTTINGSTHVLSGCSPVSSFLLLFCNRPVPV

Adrenergic β1 = Adrenergic β1 (Homo sapiens, UniProt P08588); test: radioligand binding (Table S2); conditions: read-out: % Inhibition @ 10 µM
Sequence of Adrenergic β1 (P08588 whole entry): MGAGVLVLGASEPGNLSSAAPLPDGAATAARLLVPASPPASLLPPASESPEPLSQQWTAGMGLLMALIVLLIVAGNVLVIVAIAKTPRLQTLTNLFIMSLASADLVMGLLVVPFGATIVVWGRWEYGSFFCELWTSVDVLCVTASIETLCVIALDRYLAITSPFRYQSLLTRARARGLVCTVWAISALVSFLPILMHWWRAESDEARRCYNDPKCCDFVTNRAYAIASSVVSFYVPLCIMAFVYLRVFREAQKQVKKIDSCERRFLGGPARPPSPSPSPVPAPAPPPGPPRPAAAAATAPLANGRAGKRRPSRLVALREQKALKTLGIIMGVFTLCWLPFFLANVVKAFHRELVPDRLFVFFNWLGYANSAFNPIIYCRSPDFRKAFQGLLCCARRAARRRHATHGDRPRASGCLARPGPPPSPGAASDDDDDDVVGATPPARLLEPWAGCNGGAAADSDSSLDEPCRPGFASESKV

TP (TXA2/PGH2) = biological target: T7, TP (TXA2/PGH2) (Homo sapiens, UniProt P21731); test: functional assay, intracellular [Ca2+], HEK-293 cells (Table S2); format: cell-based; conditions: for inhibition at 10 µM: HEK293, read-out: % inhibition of reference agonist response @ 10 µM (antagonist effect), 10 µM, U 44069 (10 nM)
T7 construct: expressed in transfected cells; host or cells: HEK-293 cells
T7 sequence (P21731 1-343): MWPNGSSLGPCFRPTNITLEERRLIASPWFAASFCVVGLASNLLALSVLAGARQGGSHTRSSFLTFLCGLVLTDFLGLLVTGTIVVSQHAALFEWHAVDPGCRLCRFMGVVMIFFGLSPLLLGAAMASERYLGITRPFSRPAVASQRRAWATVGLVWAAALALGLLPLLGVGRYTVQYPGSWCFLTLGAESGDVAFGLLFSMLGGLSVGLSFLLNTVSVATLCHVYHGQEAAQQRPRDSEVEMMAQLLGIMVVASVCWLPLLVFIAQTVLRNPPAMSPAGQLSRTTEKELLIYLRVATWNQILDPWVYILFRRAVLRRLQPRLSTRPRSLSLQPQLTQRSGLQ

[4] = biological target: T8, Corticotropin-releasing factor CRF1 (Homo sapiens, UniProt P34998); test: functional assay, cAMP HTRF, CHO cells (Table S2); format: cell-based
T8 construct: expressed in transfected cells; host or cells: CHO cells
T8 sequence (P34998 24-415): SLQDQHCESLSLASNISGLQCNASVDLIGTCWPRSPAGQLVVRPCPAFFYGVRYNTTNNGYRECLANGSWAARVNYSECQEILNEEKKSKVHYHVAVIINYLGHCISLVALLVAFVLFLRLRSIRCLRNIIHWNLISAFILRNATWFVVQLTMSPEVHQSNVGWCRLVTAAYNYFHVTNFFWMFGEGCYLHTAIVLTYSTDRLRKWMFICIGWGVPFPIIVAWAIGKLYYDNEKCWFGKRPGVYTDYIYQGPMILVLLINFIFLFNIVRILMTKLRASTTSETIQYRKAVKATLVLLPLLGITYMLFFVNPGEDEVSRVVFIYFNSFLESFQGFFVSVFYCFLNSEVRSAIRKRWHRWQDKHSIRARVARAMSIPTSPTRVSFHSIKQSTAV

PDE5 (non-selective) = PDE5 (non-selective) (Homo sapiens, UniProt O76074); test: enzyme assay (Table S2); format: biochemical; conditions: Human platelets, [3H]cGMP + cGMP (1 µM)
Cannabinoid CB2 = Cannabinoid CB2 (Homo sapiens, UniProt P34972); test: radioligand binding (Table S2); conditions: read-out: % Inhibition @ 10 µM
Sequence of Cannabinoid CB2 (P34972 whole entry): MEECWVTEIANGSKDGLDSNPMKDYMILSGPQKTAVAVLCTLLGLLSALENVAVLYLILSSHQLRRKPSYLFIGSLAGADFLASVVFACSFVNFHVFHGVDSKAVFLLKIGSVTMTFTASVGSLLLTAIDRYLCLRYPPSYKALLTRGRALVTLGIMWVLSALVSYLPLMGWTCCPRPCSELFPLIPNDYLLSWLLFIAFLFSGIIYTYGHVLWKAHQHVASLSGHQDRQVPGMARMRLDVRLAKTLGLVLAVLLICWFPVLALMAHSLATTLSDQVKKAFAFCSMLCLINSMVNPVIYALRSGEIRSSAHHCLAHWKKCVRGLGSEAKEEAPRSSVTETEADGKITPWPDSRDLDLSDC

in vitro = conditions: human, Caco-2
Chemokine CXCR2 (IL-8RB) = Chemokine CXCR2 (IL-8RB) (Homo sapiens, UniProt P25025); test: radioligand binding (Table S2); conditions: [125I] IL-8, Human recombinant CHO-K1 cells
[5] = biological target: T9, Glutamate, metabotropic, mGlu5 (Homo sapiens, UniProt P41594); test: radioligand binding (Table S2); conditions: [3H] Quisqualic acid, Human recombinant CHO-K1 cells
T9 construct: host or cells: CHO-K1 cells

Purinergic receptor P2X = test: radioligand binding (Table S2); conditions: [3H] α,β-MeATP, Rat urinary bladder
Histamine H2 = biological target: T10, Histamine H2 (Homo sapiens, UniProt P25021); test: radioligand binding (Table S2); conditions: [125I] APT, Human recombinant CHO cells
T10 construct: host or cells: CHO cells
T10 sequence (P25021 whole entry): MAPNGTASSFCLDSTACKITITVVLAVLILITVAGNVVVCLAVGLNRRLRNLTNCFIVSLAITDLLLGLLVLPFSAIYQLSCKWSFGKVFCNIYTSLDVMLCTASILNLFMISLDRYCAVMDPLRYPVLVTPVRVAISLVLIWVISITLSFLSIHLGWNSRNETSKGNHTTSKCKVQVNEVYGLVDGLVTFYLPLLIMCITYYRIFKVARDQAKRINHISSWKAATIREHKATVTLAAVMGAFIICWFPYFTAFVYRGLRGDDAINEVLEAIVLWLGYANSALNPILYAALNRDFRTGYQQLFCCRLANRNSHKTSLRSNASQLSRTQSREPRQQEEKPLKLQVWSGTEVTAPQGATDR

Serotonin 5-HT2C = biological target: T11, Serotonin 5-HT2C (Homo sapiens, UniProt P28335); test: radioligand binding (Table S2); conditions: [3H] Mesulergine, Human recombinant HEK-293 cells
T11 construct: host or cells: HEK-293 cells
T11 sequence (P28335 33-458): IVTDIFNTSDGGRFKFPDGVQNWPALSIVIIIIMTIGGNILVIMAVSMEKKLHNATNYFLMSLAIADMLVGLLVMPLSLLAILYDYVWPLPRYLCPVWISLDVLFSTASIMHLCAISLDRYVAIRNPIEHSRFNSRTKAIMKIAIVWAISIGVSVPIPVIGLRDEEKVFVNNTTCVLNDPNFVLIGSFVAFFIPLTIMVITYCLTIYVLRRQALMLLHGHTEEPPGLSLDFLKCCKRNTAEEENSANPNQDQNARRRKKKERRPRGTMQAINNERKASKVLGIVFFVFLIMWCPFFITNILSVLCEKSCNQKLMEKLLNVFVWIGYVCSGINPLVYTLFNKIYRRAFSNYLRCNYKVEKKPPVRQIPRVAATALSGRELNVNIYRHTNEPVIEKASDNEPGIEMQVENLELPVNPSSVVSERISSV

PKCε = biological target: T12, PKCε (Homo sapiens, UniProt Q02156); test: enzyme assay (Table S2); format: biochemical; conditions: HTRF
T12 construct: host or cells: insect cells

[6] = biological target: T13, Platelet-activating factor PAF (Homo sapiens, UniProt P25105); test: radioligand binding (Table S2); conditions: [3H] C16-PAF, Human recombinant CHO cells
T13 construct: host or cells: CHO cells

Purinergic receptor P2Y = test: radioligand binding (Table S2); conditions: [35S] dATPαS, Rat cerebral cortex
Somatostatin sst1 = Somatostatin sst1 (Homo sapiens, UniProt P30872); test: radioligand binding (Table S2); conditions: [125I] Tyr11-Somatostatin 14, Human recombinant CHO-S cells
Sequence of Somatostatin sst1 (P30872 whole entry): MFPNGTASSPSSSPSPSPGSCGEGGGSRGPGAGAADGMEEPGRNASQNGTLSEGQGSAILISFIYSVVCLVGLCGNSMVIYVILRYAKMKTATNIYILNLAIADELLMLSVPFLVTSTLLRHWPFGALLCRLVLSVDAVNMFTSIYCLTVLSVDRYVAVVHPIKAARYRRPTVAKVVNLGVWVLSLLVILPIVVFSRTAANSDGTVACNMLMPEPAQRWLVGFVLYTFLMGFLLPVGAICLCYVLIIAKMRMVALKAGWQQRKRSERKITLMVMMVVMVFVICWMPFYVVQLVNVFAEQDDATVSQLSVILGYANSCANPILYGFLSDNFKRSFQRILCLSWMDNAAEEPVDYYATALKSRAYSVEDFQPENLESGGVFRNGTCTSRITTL

Chemokine CCR2B = biological target: T14, Chemokine CCR2B (Homo sapiens, UniProt P41597); test: radioligand binding (Table S2); conditions: [125I] MCP-1, Human recombinant CHO-K1 cells
T14 construct: host or cells: CHO-K1 cells
T14 sequence (P41597 1-360 isoform P41597-2): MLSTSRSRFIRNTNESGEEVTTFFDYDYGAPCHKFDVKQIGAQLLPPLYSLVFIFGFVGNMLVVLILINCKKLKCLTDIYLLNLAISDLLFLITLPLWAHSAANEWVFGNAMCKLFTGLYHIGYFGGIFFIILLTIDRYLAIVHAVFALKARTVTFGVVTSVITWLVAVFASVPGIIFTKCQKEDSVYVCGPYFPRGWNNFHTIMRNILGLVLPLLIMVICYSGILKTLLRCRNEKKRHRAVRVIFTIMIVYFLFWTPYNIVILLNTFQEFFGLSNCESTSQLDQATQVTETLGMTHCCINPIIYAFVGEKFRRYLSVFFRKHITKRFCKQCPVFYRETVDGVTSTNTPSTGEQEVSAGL

Opioid κ (KOP) = biological target: T15, Opioid κ (KOP) (Rattus norvegicus, UniProt P34975); test: radioligand binding (Table S2); conditions: [3H] U 69593, Rat recombinant CHO cells
T15 construct: host or cells: CHO cells
T15 sequence (P34975 whole entry): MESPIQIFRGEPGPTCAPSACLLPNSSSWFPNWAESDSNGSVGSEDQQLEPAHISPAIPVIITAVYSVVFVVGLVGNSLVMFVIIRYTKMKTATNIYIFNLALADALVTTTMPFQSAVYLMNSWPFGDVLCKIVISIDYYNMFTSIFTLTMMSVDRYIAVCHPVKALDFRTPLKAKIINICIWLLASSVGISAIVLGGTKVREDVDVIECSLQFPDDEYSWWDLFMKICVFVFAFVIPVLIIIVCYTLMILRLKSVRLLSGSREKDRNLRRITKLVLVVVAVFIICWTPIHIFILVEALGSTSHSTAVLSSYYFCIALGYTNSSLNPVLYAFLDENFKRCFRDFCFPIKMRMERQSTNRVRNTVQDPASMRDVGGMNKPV

For `Cc1cc(-c2ncnn2C)c2cccc(OCc3c(Cl)cc(F)cc3[C@H](C)NC(=O)COC(F)F)c2n1` [Compound 3, (S)-N-(1-(3-chloro-5-fluoro-2-((2-methyl-4-(1-methyl-1H-1,2,4-triazol-5-yl)quinolin-8-yloxy)methyl)phenyl)ethyl)-2-(difluoromethoxy)acetamide], the inhibition at 10 µM (Vasopressin V1B) was 7.7%, the inhibition at 10 µM [1] was -2.2% and the inhibition at 10 µM [2] was 6%. It also gave an inhibition at 10 µM (COX1) of -9.3%, an inhibition at 10 µM (Cannabinoid CB1) of -3% and an inhibition at 10 µM [3] of -6%. It also gave an inhibition at 10 µM (Serotonin 5-HT4 e) of -0.9%, an inhibition at 10 µM (Adrenergic β1) of 0.3% and an IC50 (TP (TXA2/PGH2)) of 3.6 µM. For the same compound, the Kb (TP (TXA2/PGH2)) was 0.51 µM, the “% of reference agonist response @ 10 µM (agonist effect)” value (TP (TXA2/PGH2); 10 µM, reference U 44069 (0.3 µM)) was -2.8% and the inhibition at 10 µM (TP (TXA2/PGH2); first entry of Table S2, single concentration) was 62.3%. For the same compound, the inhibition at 10 µM (TP (TXA2/PGH2); second entry of Table S2, with IC50 and KB) was 55.1%, the “% of reference agonist response @ 10 µM (agonist effect)” value ([4]; 10 µM, reference ovine CRF (1 µM)) was -2.7% and the inhibition at 10 µM ([4]; CHO, read-out: % inhibition of reference agonist response @ 10 µM (antagonist effect), 10 µM, Ovine CRF (10 nM)) was 55.7%. It also gave an IC50 ([4]; Ovine CRF (10 nM), read-out: IC50 (µM), functional antagonism) of 10 µM, a Kb ([4]; Ovine CRF (10 nM), read-out: Kb (µM), functional antagonism) of 3.6 µM and an inhibition at 10 µM (PDE5 (non-selective)) of 15.5%. The inhibition at 10 µM (Cannabinoid CB2) was -17.7%, the Papp A→B at 60 min, 10 µM (in vitro) was 17.3 ×10⁻⁶ cm/s and the Papp B→A at 60 min, 10 µM (in vitro) was 17.6 ×10⁻⁶ cm/s. For the same compound, the inhibition at 10 µM (Chemokine CXCR2 (IL-8RB)) was 17%, the inhibition at 10 µM [5] was -8% and the “% Inhibition @ 10 µM” value (Purinergic receptor P2X) was 6.3%. For the same compound, the inhibition at 10 µM (Histamine H2) was -26.5%, the inhibition at 10 µM (Serotonin 5-HT2C) was 5% and the inhibition at 10 µM (PKCε) was 6.8%. For the same compound, the inhibition at 10 µM [6] was 25%, the “% Inhibition @ 10 µM” value (Purinergic receptor P2Y) was -4.3% and the inhibition at 10 µM (Somatostatin sst1) was -2%. For the same compound, the inhibition at 10 µM (Chemokine CCR2B) was 1% and the inhibition at 10 µM (Opioid κ (KOP)) was 15.4%.
